Experimental data: ChEMBL document CHEMBL1201862, “PubChem BioAssay data set” (2004)
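48-hour exposure; five concentrations; linearly interpolated endpoints. GI50 marks 50% less growth.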 The source made the active and inactive calls. Cut-off read from the data, not from the text of the source: active = GI50 up to about 1.1 µM and inactive = higher.

Columns and labels:
Assay in all cases: DTP human tumour cell line panel, 48 h
HOP-92 = system: HOP-92
HCC 2998 = system: HCC 2998
OVCAR-5 = system: OVCAR-5
Malme-3M = system: Malme-3M
SNB-19 = system: SNB-19
SR = system: SR
HCT-116 = system: HCT-116
HOP-62 = system: HOP-62
CAKI-1 = system: CAKI-1
SK-MEL-5 = system: SK-MEL-5
SF-268 = system: SF-268
NCI-H460 = system: NCI-H460
SK-MEL-2 = system: SK-MEL-2
OVCAR-4 = system: OVCAR-4
A498 = system: A498
A549 = system: A549
CCRF-CEM = system: CCRF-CEM
OVCAR-8 = system: OVCAR-8
IGROV-1 = system: IGROV-1

Structure (SMILES)	GI50 (HOP-92)	GI50 (HCC 2998)	GI50 (OVCAR-5)	GI50 (Malme-3M)	GI50 (SNB-19)	GI50 (SR)	GI50 (HCT-116)	GI50 (HOP-62)	GI50 (CAKI-1)	GI50 (SK-MEL-5)	GI50 (SF-268)	GI50 (NCI-H460)	GI50 (SK-MEL-2)	GI50 (OVCAR-4)	GI50 (A498)	GI50 (A549)	GI50 (CCRF-CEM)	GI50 (OVCAR-8)	GI50 (IGROV-1)
Nc1ncnc2c1ncn2[C@]1(CO)C=C(CO)C(O)C1O (stereo partly drawn)	> 100 µM (inactive)	> 100 µM (inactive)	80.4 µM (inactive)	> 100 µM (inactive)	> 100 µM (inactive)	> 100 µM (inactive)	73.1 µM (inactive)	52.5 µM (inactive)	> 100 µM (inactive)	> 100 µM (inactive)	> 100 µM (inactive)	> 100 µM (inactive)	> 100 µM (inactive)	> 100 µM (inactive)	> 100 µM (inactive)	> 100 µM (inactive)	–	–	–
CC(C)=CC1CC(=O)C1(C)Sc1ccccc1 (stereo not drawn)	29.9 µM (inactive)	> 100 µM (inactive)	> 100 µM (inactive)	> 100 µM (inactive)	67.8 µM (inactive)	20 µM (inactive)	29.6 µM (inactive)	> 100 µM (inactive)	54.7 µM (inactive)	33.3 µM (inactive)	51.3 µM (inactive)	25 µM (inactive)	35.2 µM (inactive)	> 100 µM (inactive)	56.2 µM (inactive)	48.2 µM (inactive)	19.1 µM (inactive)	> 100 µM (inactive)	> 100 µM (inactive)
COc1cc(C(C)O)c[n+](CCC2CNc3ccccc32)c1 (stereo not drawn)	–	> 100 µM (inactive)	–	> 100 µM (inactive)	> 100 µM (inactive)	> 100 µM (inactive)	> 100 µM (inactive)	> 100 µM (inactive)	> 100 µM (inactive)	> 100 µM (inactive)	27 µM (inactive)	> 100 µM (inactive)	> 100 µM (inactive)	> 100 µM (inactive)	> 100 µM (inactive)	> 100 µM (inactive)	> 100 µM (inactive)	> 100 µM (inactive)	> 100 µM (inactive)
CC(C)COC1Sc2ccccc2S1	14.5 µM (inactive)	28.7 µM (inactive)	–	23.6 µM (inactive)	18.1 µM (inactive)	–	–	21.4 µM (inactive)	16.3 µM (inactive)	–	23.1 µM (inactive)	7.85 µM (inactive)	–	23.1 µM (inactive)	–	20.5 µM (inactive)	27.7 µM (inactive)	29.1 µM (inactive)	5.35 µM (inactive)
O=C(Nc1c(O)[nH]c(=S)[nH]c1=O)c1ccco1	38.9 µM (inactive)	–	> 100 µM (inactive)	> 100 µM (inactive)	> 100 µM (inactive)	> 100 µM (inactive)	> 100 µM (inactive)	> 100 µM (inactive)	> 100 µM (inactive)	> 100 µM (inactive)	> 100 µM (inactive)	> 100 µM (inactive)	> 100 µM (inactive)	> 100 µM (inactive)	> 100 µM (inactive)	> 100 µM (inactive)	> 100 µM (inactive)	> 100 µM (inactive)	> 100 µM (inactive)
O=C(N/C(=C\c1ccc(/C=C(\NC(=O)c2ccccc2)c2nc3c(O)nc(S)nc3[nH]2)cc1)c1nc2c(O)nc(S)nc2[nH]1)c1ccccc1	> 100 µM (inactive)	> 100 µM (inactive)	> 100 µM (inactive)	> 100 µM (inactive)	> 100 µM (inactive)	–	44.8 µM (inactive)	> 100 µM (inactive)	> 100 µM (inactive)	64.4 µM (inactive)	57.9 µM (inactive)	> 100 µM (inactive)	8.71 µM (inactive)	25.9 µM (inactive)	40.6 µM (inactive)	> 100 µM (inactive)	26.2 µM (inactive)	74.6 µM (inactive)	> 100 µM (inactive)
Oc1c(OCc2nnc(CCCCCCCCc3nnc(COc4ccc5ccccc5c4O)o3)o2)ccc2ccccc12	43 µM (inactive)	> 100 µM (inactive)	> 100 µM (inactive)	> 100 µM (inactive)	39.9 µM (inactive)	–	0.47 µM (active)	–	29.8 µM (inactive)	> 100 µM (inactive)	85.5 µM (inactive)	> 100 µM (inactive)	> 100 µM (inactive)	> 100 µM (inactive)	> 100 µM (inactive)	57.3 µM (inactive)	–	–	–
Cn1c(=O)sc2cc(C(=S)N3CCN(c4ccccc4)CC3)ccc21	–	–	97.1 µM (inactive)	42.3 µM (inactive)	45.3 µM (inactive)	6.67 µM (inactive)	85.5 µM (inactive)	18.5 µM (inactive)	> 100 µM (inactive)	> 100 µM (inactive)	29.9 µM (inactive)	51.9 µM (inactive)	56 µM (inactive)	–	> 100 µM (inactive)	–	40.7 µM (inactive)	38.4 µM (inactive)	46.5 µM (inactive)
O/N=C1/CCC/C1=C\c1ccccc1	> 100 µM (inactive)	> 100 µM (inactive)	67.5 µM (inactive)	> 100 µM (inactive)	> 100 µM (inactive)	12.4 µM (inactive)	> 100 µM (inactive)	> 100 µM (inactive)	> 100 µM (inactive)	> 100 µM (inactive)	> 100 µM (inactive)	> 100 µM (inactive)	> 100 µM (inactive)	> 100 µM (inactive)	–	> 100 µM (inactive)	> 100 µM (inactive)	> 100 µM (inactive)	> 100 µM (inactive)
C=C(Br)C(C)(Cl)CCC(Br)C(C)(C)Br (stereo not drawn)	32.7 µM (inactive)	–	37.2 µM (inactive)	69 µM (inactive)	–	22.1 µM (inactive)	31.9 µM (inactive)	> 100 µM (inactive)	> 100 µM (inactive)	65.3 µM (inactive)	–	47.5 µM (inactive)	29.2 µM (inactive)	> 100 µM (inactive)	–	40.9 µM (inactive)	22.5 µM (inactive)	> 100 µM (inactive)	> 100 µM (inactive)
Nc1nc2c3c(ncn3CC(O)CO2)n1 (stereo not drawn)	> 100 µM (inactive)	> 100 µM (inactive)	> 100 µM (inactive)	> 100 µM (inactive)	> 100 µM (inactive)	> 100 µM (inactive)	> 100 µM (inactive)	> 100 µM (inactive)	> 100 µM (inactive)	> 100 µM (inactive)	> 100 µM (inactive)	> 100 µM (inactive)	> 100 µM (inactive)	> 100 µM (inactive)	> 100 µM (inactive)	> 100 µM (inactive)	> 100 µM (inactive)	> 100 µM (inactive)	> 100 µM (inactive)
Cc1ccc(NC(=O)CCc2nc(N)nc(N)c2-c2ccccc2)cc1C	> 100 µM (inactive)	> 100 µM (inactive)	> 100 µM (inactive)	> 100 µM (inactive)	> 100 µM (inactive)	> 100 µM (inactive)	> 100 µM (inactive)	> 100 µM (inactive)	> 100 µM (inactive)	> 100 µM (inactive)	> 100 µM (inactive)	> 100 µM (inactive)	> 100 µM (inactive)	> 100 µM (inactive)	> 100 µM (inactive)	> 100 µM (inactive)	> 100 µM (inactive)	> 100 µM (inactive)	> 100 µM (inactive)
N#C/C(=C\c1ccc(O)c(O)c1)c1c(C#N)c(N)nn1-c1ccccc1	8.71 µM (inactive)	9.66 µM (inactive)	33 µM (inactive)	4.95 µM (inactive)	7.19 µM (inactive)	–	5.48 µM (inactive)	10 µM (inactive)	1.59 µM (inactive)	6.58 µM (inactive)	7.38 µM (inactive)	10.8 µM (inactive)	13 µM (inactive)	17.2 µM (inactive)	2.76 µM (inactive)	10.1 µM (inactive)	4.11 µM (inactive)	5.82 µM (inactive)	4.17 µM (inactive)
Cc1ccc(S(=O)(=O)OCC23CCC(C2)C2CC23)cc1 (stereo not drawn)	26 µM (inactive)	> 100 µM (inactive)	> 100 µM (inactive)	> 100 µM (inactive)	> 100 µM (inactive)	> 100 µM (inactive)	> 100 µM (inactive)	> 100 µM (inactive)	> 100 µM (inactive)	> 100 µM (inactive)	> 100 µM (inactive)	> 100 µM (inactive)	–	> 100 µM (inactive)	> 100 µM (inactive)	> 100 µM (inactive)	> 100 µM (inactive)	> 100 µM (inactive)	> 100 µM (inactive)
CC1(C)OC2CC3COC(=O)C3CC2O1 (stereo not drawn)	> 100 µM (inactive)	> 100 µM (inactive)	> 100 µM (inactive)	> 100 µM (inactive)	–	> 100 µM (inactive)	> 100 µM (inactive)	> 100 µM (inactive)	> 100 µM (inactive)	> 100 µM (inactive)	> 100 µM (inactive)	> 100 µM (inactive)	> 100 µM (inactive)	> 100 µM (inactive)	> 100 µM (inactive)	> 100 µM (inactive)	> 100 µM (inactive)	> 100 µM (inactive)	> 100 µM (inactive)
CC12O[C@H](c3ccccc3)[C@H](c3ccccc3)N1C(=O)C1(C(=O)OCc3ccccc3)CC12 (stereo partly drawn)	23.5 µM (inactive)	> 100 µM (inactive)	> 100 µM (inactive)	> 100 µM (inactive)	> 100 µM (inactive)	–	98.2 µM (inactive)	> 100 µM (inactive)	> 100 µM (inactive)	88.7 µM (inactive)	> 100 µM (inactive)	> 100 µM (inactive)	33.3 µM (inactive)	79.1 µM (inactive)	> 100 µM (inactive)	22.3 µM (inactive)	28.6 µM (inactive)	92.3 µM (inactive)	> 100 µM (inactive)
